Tests used:
Assay type in all cases: in vivo
[1] = system: green foxtail (Setaria viridis, SETVI); test: Greenhouse herbicide screen, pre-emerge application, phytotoxicity rating; settings: PRE emergent, 14 days after application, rating scale 0-100
Outline: (§1)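 Crop and weed responses were judged visually on a 0–100 scale two weeks post-treatment. Treatments: acetone solutions, 15–1000 g ai/ha, sprayed at 187 l/ha onto pre-emerge soil or 2–3-leaf plants.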

[2] = system: velvetleaf (Abutilon theophrasti, ABUTH); test: as above; settings: PRE emergent, 14 days after application, rating scale 0-100
Outline: as §1

[3] = system: large crabgrass (Digitaria sanguinalis, DIGSA); test: as above; settings: PRE emergent, 14 days after application, rating scale 0-100
Outline: as §1

[4] = system: sicklepod (Cassia obtusifolia, CASOB); test: as above; settings: PRE emergent, 14 days after application, rating scale 0-100
Outline: as §1

[5] = system: lambsquarters (Chenopodium album, CHEAL); test: as above; settings: PRE emergent, 14 days after application, rating scale 0-100
Outline: as §1

[6] = system: barnyardgrass (Echinochloa crus-galli, ECHCG); test: as above; settings: PRE emergent, 14 days after application, rating scale 0-100
Outline: as §1

[7] = system: johnsongrass (Sorghum halepense, SORHA); test: as above; settings: PRE emergent, 14 days after application, rating scale 0-100
Outline: as §1

[8] = system: common ragweed (Ambrosia artemisiifolia L., AMBEL); test: as above; settings: PRE emergent, 14 days after application, rating scale 0-100
Outline: as §1

[9] = system: redroot pigweed (Amaranthus retrofiexus, AMARE); test: as above; settings: PRE emergent, 14 days after application, rating scale 0-100
Outline: as §1

[10] = system: cocklebur (Xanthium strumarium, XANST); test: as above; settings: PRE emergent, 14 days after application, rating scale 0-100
Outline: as §1

[11] = system: ivyleaf morningglory (Ipomoea hederacea, IPOHE); test: as above; settings: PRE emergent, 14 days after application, rating scale 0-100
Outline: as §1

[12] = system: green foxtail (Setaria viridis, SETVI); test: Greenhouse herbicide screen, post-emerge application, phytotoxicity rating; settings: POST emergent, 14 days after application, scale 0-100
Outline: as §1

[13] = system: velvetleaf (Abutilon theophrasti, ABUTH); test: as above; settings: POST emergent, 14 days after application, scale 0-100
Outline: as §1

[14] = system: large crabgrass (Digitaria sanguinalis, DIGSA); test: as above; settings: POST emergent, 14 days after application, scale 0-100
Outline: as §1

[15] = system: sicklepod (Cassia obtusifolia, CASOB); test: as above; settings: POST emergent, 14 days after application, scale 0-100
Outline: as §1

[16] = system: lambsquarters (Chenopodium album, CHEAL); test: as above; settings: POST emergent, 14 days after application, scale 0-100
Outline: as §1

[17] = system: barnyardgrass (Echinochloa crus-galli, ECHCG); test: as above; settings: POST emergent, 14 days after application, scale 0-100
Outline: as §1

[18] = system: johnsongrass (Sorghum halepense, SORHA); test: as above; settings: POST emergent, 14 days after application, scale 0-100
Outline: as §1

[19] = system: common ragweed (Ambrosia artemisiifolia L., AMBEL); test: as above; settings: POST emergent, 14 days after application, scale 0-100
Outline: as §1

[20] = system: redroot pigweed (Amaranthus retrofiexus, AMARE); test: as above; settings: POST emergent, 14 days after application
Outline: as §1

[21] = system: cocklebur (Xanthium strumarium, XANST); test: as above; settings: POST emergent, 14 days after application, scale 0-100
Outline: as §1

[22] = system: ivyleaf morningglory (Ipomoea hederacea, IPOHE); test: as above; settings: POST emergent, 14 days after application, scale 0-100
Outline: as §1

[23] = system: upland rice (Oryza sp., var.Cocodrie, RICE); test: Greenhouse herbicide screen, pre-emerge application, crop damage rating; settings: PRE emergent, 14 days after application, rating scale 0-100
From the text: (§2) A standard greenhouse herbicide activity screening system was used to evaluate the herbicidal efficacy and crop safety of these test compounds. Seven broadleaf weed species including redroot pigweed (Amaranthus retrofiexus, AMARE), velvetleaf (Abutilon theophrasti, ABUTH), sicklepod (Cassia obtusifolia, CASOB), ivyleaf morningglory (Ipomoea hederacea, IPOHE), lambsquarters (Chenopodium album, CHEAL), common ragweed (Ambrosia artemisiifolia L., AMBEL), and cocklebur (Xanthium strumarium, XANST) were used as test species. Four grass weed species including green foxtail (Setaria viridis, SETVI), barnyardgrass (Echinochloa crus-galli, ECHCG), johnsongrass (Sorghum halepense, SORHA), and large crabgrass (Digitaria sanguinalis, DIGSA) were also used. In addition, four crop species, field corn (Zea mays L., var. Dekalb 535, CORN), soybean (Glycine max L., var. Pella 86, SOY), upland rice (Oryza sp., var.Cocodrie, RICE) and wheat (Triticum aestivum L.) were included.
(§3) All plants were grown in 10 cm square plastic pots which were filled with a sandy loam soil mix. For pre-emerge tests, seeds were planted one day prior to application of the test compounds. For post-emerge tests, seeds were planted 8-21 days prior to the test to allow emergence and good foliage development prior to application of the test substances. At the time of the post-emerge application, plants of all species were usually at the 2-3 leaf stage of development.
(§4) All test compounds were dissolved in acetone and applied to the test units in a volume of 187 l/ha. Test materials were applied at rates ranging from 15 g ai/ha to 1000 g ai/ha using a track sprayer equipped with a TJ8001E even flow flat fan spray nozzle. Plants were arranged on a shelf so that the top of the canopy (post-emerge) or top of the soil surface (pre-emerge) was 40-45 cm below the nozzle. Pressurized air was used to force the test solution through the nozzle as it was mechanically advanced (via electrically driven chain drive) over the top of all test plants/pots. This application simulates a typical commercial field herbicide application.
(§5) Pre-emergence tests were top watered immediately after treatment to incorporate the test materials, then routinely top-watered for normal growth. Post-emerge test units were always bottom-watered.
(§6) At 14 days after application of the test materials, phytotoxicity ratings were recorded. A rating scale of 0-100 was used as previously described in Research Methods in Weed Science, 2nd edition, B. Truelove, Ed., Southern Weed Science Society, Auburn University, Auburn, Ala., 1977. Briefly, “0” corresponds to no damage and “100” corresponds to complete death of all plants in the test unit. This scale was used both to determine efficacy against weed species and damage to crop species. Herbicide activity data for various compounds of this invention, which are shown by compound No. in Tables 1-12, are shown in Tables 13 and 14.

[24] = system: field corn (Zea mays L., var. Dekalb 535, CORN); test: as above; settings: PRE emergent, 14 days after application, rating scale 0-100
From the text: as §2, §3, §4, §5, §6

[25] = system: upland rice (Oryza sp., var.Cocodrie, RICE); test: Greenhouse herbicide screen, post-emerge application, crop damage rating; settings: POST emergent, 14 days after application, scale 0-100
From the text: as §2, §3, §4, §5, §6

[26] = system: field corn (Zea mays L., var. Dekalb 535, CORN); test: as above; settings: POST emergent, 14 days after application, scale 0-100
From the text: as §2, §3, §4, §5, §6

CC1CCCC(C)N1NC(=O)c1cc(-n2c(=O)cc(C(F)(F)F)n(C)c2=O)c(F)cc1Cl (stereo not shown) [Compound 1-16]
90: phytotoxicity rating SETVI ([1]; 63 g ai/ha) | phytotoxicity rating SETVI ([12]; 63 g ai/ha)
100: phytotoxicity rating ABUTH ([2]; 63 g ai/ha) | phytotoxicity rating ABUTH ([2]; 250 g ai/ha) | phytotoxicity rating CHEAL ([5]; 63 g ai/ha) | phytotoxicity rating CHEAL ([5]; 250 g ai/ha) | phytotoxicity rating AMARE ([9]; 63 g ai/ha) | phytotoxicity rating AMARE ([9]; 250 g ai/ha) | phytotoxicity rating XANST ([10]; 250 g ai/ha) | phytotoxicity rating IPOHE ([11]; 63 g ai/ha) | phytotoxicity rating IPOHE ([11]; 250 g ai/ha) | phytotoxicity rating ABUTH ([13]; 63 g ai/ha) | phytotoxicity rating ABUTH ([13]; 250 g ai/ha) | phytotoxicity rating CHEAL ([16]; 63 g ai/ha) | phytotoxicity rating CHEAL ([16]; 250 g ai/ha) | phytotoxicity rating AMARE ([20]; 63 g ai/ha, scale 0-100 (0 no damage, 100 complete death)) | phytotoxicity rating AMARE ([20]; 250 g ai/ha, scale 0-100) | phytotoxicity rating XANST ([21]; 250 g ai/ha) | phytotoxicity rating IPOHE ([22]; 63 g ai/ha) | phytotoxicity rating IPOHE ([22]; 250 g ai/ha) | crop damage rating CORN ([24]; 63 g ai/ha) | crop damage rating CORN ([24]; 250 g ai/ha) | crop damage rating CORN ([26]; 63 g ai/ha) | crop damage rating CORN ([26]; 250 g ai/ha)
75: phytotoxicity rating SORHA ([7]; 63 g ai/ha) | phytotoxicity rating XANST ([10]; 63 g ai/ha) | phytotoxicity rating SORHA ([18]; 63 g ai/ha) | phytotoxicity rating XANST ([21]; 63 g ai/ha)
30: phytotoxicity rating DIGSA ([3]; 63 g ai/ha) | phytotoxicity rating DIGSA ([14]; 63 g ai/ha)
99: phytotoxicity rating SETVI ([1]; 250 g ai/ha) | phytotoxicity rating CASOB ([4]; 250 g ai/ha) | phytotoxicity rating SORHA ([7]; 250 g ai/ha) | phytotoxicity rating AMBEL ([8]; 63 g ai/ha) | phytotoxicity rating AMBEL ([8]; 250 g ai/ha) | phytotoxicity rating SETVI ([12]; 250 g ai/ha) | phytotoxicity rating CASOB ([15]; 250 g ai/ha) | phytotoxicity rating SORHA ([18]; 250 g ai/ha) | phytotoxicity rating AMBEL ([19]; 63 g ai/ha) | phytotoxicity rating AMBEL ([19]; 250 g ai/ha)
98: phytotoxicity rating DIGSA ([3]; 250 g ai/ha) | phytotoxicity rating CASOB ([4]; 63 g ai/ha) | phytotoxicity rating ECHCG ([6]; 250 g ai/ha) | phytotoxicity rating DIGSA ([14]; 250 g ai/ha) | phytotoxicity rating CASOB ([15]; 63 g ai/ha) | phytotoxicity rating ECHCO ([17]; 250 g ai/ha) | crop damage rating RICE ([23]; 250 g ai/ha) | crop damage rating RICE ([25]; 250 g ai/ha)
35: phytotoxicity rating ECHCG ([6]; 63 g ai/ha) | phytotoxicity rating ECHCO ([17]; 63 g ai/ha)
45: crop damage rating RICE ([23]; 63 g ai/ha) | crop damage rating RICE ([25]; 63 g ai/ha)
